For 2 compounds, IC50 and inhibition results are on record in ChEMBL document CHEMBL5370603, “N-(2-Aminophenyl)-benzamide Inhibitors of Class I HDAC Enzymes with Antiproliferative and Antifibrotic Activity” (J Med Chem, 2023).

Molecules are shown by their SMILES. pIC50: −log10 of the molar value. Active and inactive are the calls of the source. The rule behind the calls is not given here.

Usually pIC50 stands for −log10 of the IC50, conventionally taken in molar units. A word on the inhibition: it is the relative decrease from the control value, in per cent.

Histone deacetylase 3, sequence (O15379 whole entry): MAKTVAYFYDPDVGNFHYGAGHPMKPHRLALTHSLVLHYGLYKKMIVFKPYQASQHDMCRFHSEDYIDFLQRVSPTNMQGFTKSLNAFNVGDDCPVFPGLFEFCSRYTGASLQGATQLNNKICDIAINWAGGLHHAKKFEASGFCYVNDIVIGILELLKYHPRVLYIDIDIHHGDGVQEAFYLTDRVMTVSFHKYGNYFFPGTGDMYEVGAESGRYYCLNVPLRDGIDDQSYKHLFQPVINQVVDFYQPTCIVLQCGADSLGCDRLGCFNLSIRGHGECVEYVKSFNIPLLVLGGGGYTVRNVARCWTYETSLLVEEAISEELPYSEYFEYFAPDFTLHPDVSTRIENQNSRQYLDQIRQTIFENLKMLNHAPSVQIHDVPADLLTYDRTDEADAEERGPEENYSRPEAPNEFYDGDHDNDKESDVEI

For the first assay, the target named is T1, Histone deacetylase 1 (Homo sapiens, UniProt Q13547). The experiment in a line: Inhibition of human recombinant HDAC1 using Ac-Leu-Gly-Lys(Ac)-AMC as substrate preincubated with enzyme for 30 mins followed by substrate addition and measured after 90 mins by fluorescence based analysis.
T1 sequence (Q13547 whole entry): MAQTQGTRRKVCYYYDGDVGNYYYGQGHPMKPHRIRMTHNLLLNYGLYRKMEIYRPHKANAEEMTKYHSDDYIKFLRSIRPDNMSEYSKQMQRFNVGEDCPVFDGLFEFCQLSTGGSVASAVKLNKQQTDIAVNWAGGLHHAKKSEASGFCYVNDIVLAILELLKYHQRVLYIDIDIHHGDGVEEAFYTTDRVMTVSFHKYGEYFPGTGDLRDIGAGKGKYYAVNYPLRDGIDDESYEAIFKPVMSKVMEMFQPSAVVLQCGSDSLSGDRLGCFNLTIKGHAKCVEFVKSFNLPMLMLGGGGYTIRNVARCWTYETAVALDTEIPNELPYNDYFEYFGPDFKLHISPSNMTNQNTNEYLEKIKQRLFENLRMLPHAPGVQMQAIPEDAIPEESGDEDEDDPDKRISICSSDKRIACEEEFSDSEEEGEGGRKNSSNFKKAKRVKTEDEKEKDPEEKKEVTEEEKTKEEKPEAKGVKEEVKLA
Details: not given
`Nc1ccccc1NC(=O)c1ccc(COc2ccc(CNC(=O)[C@@H]3CCCN3Cc3ccccc3)cc2)cc1`: the pIC50 was 6.95.

For the compound `Nc1ccccc1NC(=O)c1ccc(COc2ccc(CNC(=O)C3CCCO3)cc2)cc1` (stereo unspecified), the pIC50 was 6.95.

The target in another assay is Histone deacetylase 2 (Homo sapiens, UniProt Q92769). Description: Inhibition of human recombinant HDAC2 using Ac-Leu-Gly-Lys(Ac)-AMC as substrate preincubated with enzyme for 30 mins followed by substrate addition and measured after 90 mins by fluorescence based analysis.
Histone deacetylase 2, sequence (Q92769 whole entry): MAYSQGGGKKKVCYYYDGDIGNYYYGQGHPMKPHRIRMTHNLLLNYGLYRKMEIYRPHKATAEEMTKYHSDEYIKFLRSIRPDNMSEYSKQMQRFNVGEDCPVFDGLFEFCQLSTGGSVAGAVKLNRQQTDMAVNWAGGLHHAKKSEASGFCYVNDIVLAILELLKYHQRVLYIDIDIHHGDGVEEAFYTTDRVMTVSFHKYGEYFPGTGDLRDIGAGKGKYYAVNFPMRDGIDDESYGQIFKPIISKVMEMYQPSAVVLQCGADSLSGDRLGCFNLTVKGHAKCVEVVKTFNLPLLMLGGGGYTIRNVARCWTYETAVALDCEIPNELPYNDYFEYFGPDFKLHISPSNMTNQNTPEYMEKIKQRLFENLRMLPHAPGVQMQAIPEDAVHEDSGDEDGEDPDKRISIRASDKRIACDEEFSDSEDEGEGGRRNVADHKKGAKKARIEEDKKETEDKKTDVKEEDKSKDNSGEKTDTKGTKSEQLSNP
Details: not given
As for `Nc1ccccc1NC(=O)c1ccc(COc2ccc(CNC(=O)[C@@H]3CCCN3Cc3ccccc3)cc2)cc1`, the pIC50 is 6.72.

The next assay has as its target Histone deacetylase 3 (Homo sapiens, UniProt O15379). Description: Inhibition of human recombinant HDAC3 using Ac-Leu-Gly-Lys(Ac)-AMC as substrate preincubated with enzyme for 30 mins followed by substrate addition and measured after 90 mins by fluorescence based analysis.
Details: not given
For the compound `Nc1ccccc1NC(=O)c1ccc(COc2ccc(CNC(=O)[C@@H]3CCCN3Cc3ccccc3)cc2)cc1`, the pIC50 is 6.41.

The target of another assay is T2, Protein deacetylase HDAC6 (Homo sapiens, UniProt Q9UBN7).
T2 sequence (Q9UBN7 whole entry): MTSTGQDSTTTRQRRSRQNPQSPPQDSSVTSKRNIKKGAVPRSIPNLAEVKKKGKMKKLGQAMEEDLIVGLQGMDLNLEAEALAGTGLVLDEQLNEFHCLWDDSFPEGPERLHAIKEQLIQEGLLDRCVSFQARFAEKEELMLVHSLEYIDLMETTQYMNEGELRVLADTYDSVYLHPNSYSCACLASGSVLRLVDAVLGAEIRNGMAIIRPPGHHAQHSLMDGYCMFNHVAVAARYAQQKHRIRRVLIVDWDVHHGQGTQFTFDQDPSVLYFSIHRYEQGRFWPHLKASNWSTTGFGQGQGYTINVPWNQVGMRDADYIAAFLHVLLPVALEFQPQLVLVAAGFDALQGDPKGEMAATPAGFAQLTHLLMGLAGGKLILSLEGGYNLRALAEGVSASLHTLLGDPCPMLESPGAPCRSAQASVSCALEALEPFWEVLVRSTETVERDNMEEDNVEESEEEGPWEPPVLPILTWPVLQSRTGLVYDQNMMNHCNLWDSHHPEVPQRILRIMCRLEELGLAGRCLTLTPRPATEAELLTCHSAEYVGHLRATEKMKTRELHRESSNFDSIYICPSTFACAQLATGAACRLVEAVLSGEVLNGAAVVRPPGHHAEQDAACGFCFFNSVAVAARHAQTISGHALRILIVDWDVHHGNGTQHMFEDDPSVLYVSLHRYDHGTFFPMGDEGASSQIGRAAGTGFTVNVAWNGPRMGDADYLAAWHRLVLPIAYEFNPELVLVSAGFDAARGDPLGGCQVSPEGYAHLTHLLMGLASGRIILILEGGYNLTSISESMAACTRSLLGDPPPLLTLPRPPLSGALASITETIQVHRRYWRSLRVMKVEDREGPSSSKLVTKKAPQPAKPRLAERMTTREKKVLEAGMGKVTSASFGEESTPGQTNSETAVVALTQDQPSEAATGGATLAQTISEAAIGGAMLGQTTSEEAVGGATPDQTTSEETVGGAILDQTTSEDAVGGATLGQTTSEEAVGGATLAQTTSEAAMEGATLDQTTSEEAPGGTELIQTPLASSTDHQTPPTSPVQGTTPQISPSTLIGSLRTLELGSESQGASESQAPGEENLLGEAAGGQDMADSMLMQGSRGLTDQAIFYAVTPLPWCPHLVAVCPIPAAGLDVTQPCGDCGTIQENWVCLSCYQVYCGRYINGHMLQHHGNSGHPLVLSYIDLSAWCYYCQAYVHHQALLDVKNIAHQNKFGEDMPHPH
Description: Inhibition of C-terminal FLAG-tagged human recombinant full length HDAC6 expressed in baculovirus expression system using Boc-Lys(Ac)-AMC as substrate preincubated with enzyme for 15 mins followed by substrate addition and measured after 60 mins by fluorescence based analysis.
Details: not given
Regarding `Nc1ccccc1NC(=O)c1ccc(COc2ccc(CNC(=O)[C@@H]3CCCN3Cc3ccccc3)cc2)cc1`, the pIC50 was under 4.00.

With `Nc1ccccc1NC(=O)c1ccc(COc2ccc(CNC(=O)C3CCCO3)cc2)cc1` (stereo unspecified), the pIC50 was under 5.00.

The target in the next assay is T3, Histone deacetylase 8 (Homo sapiens, UniProt Q9BY41).
T3 sequence (Q9BY41 whole entry): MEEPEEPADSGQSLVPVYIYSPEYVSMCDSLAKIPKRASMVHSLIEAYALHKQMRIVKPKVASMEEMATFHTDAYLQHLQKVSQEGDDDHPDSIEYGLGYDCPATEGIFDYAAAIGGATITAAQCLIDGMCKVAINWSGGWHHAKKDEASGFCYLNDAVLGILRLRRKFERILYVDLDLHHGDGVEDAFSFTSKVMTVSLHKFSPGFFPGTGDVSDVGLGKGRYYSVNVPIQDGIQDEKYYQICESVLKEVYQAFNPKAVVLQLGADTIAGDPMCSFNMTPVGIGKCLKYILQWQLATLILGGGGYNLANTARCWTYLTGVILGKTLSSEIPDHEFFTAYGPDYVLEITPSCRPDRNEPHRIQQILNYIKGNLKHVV
Description: Inhibition of C-terminal His-tagged human recombinant full length HDAC8 (1 to 377 residues) expressed in Sf9 cells using Ac-Leu-Gly-Lys(trifluoroAc)-AMC as substrate preincubated with enzyme for 30 mins followed by substrate addition and measured after 90 mins by fluorescence based analysis.
Details: not given
Regarding `Nc1ccccc1NC(=O)c1ccc(COc2ccc(CNC(=O)[C@@H]3CCCN3Cc3ccccc3)cc2)cc1`, the negative logarithm of the IC50 (pIC50) is under 5.00.

Another assay deals with Histone deacetylase 4 (Homo sapiens, UniProt P56524). Description: Inhibition of N-terminal GST-tagged/C-terminal His tagged human recombinant HDAC4 (627 to 1084 residues) expressed in baculovirus-infected Sf9 cells using Ac-Leu-Gly-Lys(trifluoroAc)-AMC as substrate preincubated with enzyme for 15 mins followed by substrate addition and measured after 60 mins by fluorescence based analysis.
Histone deacetylase 4, sequence (P56524 whole entry, the tested form may be a part): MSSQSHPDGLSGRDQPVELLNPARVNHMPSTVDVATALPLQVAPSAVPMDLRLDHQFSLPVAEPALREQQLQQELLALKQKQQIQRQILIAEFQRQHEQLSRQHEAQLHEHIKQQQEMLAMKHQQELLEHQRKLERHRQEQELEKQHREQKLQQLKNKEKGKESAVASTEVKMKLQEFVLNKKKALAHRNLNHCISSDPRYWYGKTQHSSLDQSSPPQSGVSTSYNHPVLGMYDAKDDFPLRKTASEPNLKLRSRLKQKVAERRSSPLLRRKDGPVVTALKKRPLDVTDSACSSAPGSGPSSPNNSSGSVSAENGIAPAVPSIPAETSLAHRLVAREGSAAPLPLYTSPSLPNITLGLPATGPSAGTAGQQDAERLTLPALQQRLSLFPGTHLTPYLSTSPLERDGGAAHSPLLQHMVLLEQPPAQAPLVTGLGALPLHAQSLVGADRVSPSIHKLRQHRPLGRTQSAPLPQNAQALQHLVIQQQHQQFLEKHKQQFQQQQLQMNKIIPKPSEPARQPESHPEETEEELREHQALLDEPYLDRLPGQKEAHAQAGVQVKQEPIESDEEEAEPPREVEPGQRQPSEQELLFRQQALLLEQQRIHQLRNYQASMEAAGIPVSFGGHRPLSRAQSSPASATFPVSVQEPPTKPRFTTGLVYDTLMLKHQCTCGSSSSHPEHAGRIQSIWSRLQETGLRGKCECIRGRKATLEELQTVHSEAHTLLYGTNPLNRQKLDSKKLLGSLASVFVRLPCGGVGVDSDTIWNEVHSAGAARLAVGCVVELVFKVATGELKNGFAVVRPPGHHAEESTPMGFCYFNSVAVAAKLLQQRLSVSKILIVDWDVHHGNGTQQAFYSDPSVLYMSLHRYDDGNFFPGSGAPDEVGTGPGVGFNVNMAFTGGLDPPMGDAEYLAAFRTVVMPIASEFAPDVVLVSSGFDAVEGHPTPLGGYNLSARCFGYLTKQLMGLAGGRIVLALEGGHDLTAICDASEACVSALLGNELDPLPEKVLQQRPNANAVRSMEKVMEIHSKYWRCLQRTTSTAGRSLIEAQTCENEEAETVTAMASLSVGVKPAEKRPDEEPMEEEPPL
Details: not given
`Nc1ccccc1NC(=O)c1ccc(COc2ccc(CNC(=O)[C@@H]3CCCN3Cc3ccccc3)cc2)cc1`: the pIC50 was under 4.00.

The next assay has as its system A549. The experiment in a line: Antiproliferative activity against human A549 cells assessed as inhibition of cell growth incubated for 72 hrs by MTT assay. In kind it is functional, cell-based. The following applies: A549, 72 h. (In general: Formazan colour is commonly taken as a measure of viable cells.)
`Nc1ccccc1NC(=O)c1ccc(COc2ccc(CNC(=O)[C@@H]3CCCN3Cc3ccccc3)cc2)cc1`: the pIC50 is 5.43.

For the compound `Nc1ccccc1NC(=O)c1ccc(COc2ccc(CNC(=O)C3CCCO3)cc2)cc1` (stereo unspecified), the pIC50 was under 4.60.

In a further assay the test system is SF-268. The experiment in a line: Antiproliferative activity against human SF-268 cells assessed as inhibition of cell growth incubated for 72 hrs by MTT assay. The note with it: SF-268, 72 h. In kind it is functional, cell-based.
On to `Nc1ccccc1NC(=O)c1ccc(COc2ccc(CNC(=O)[C@@H]3CCCN3Cc3ccccc3)cc2)cc1`, for which the pIC50 is 5.47.

On to `Nc1ccccc1NC(=O)c1ccc(COc2ccc(CNC(=O)C3CCCO3)cc2)cc1` (stereo unspecified), for which the pIC50 was under 4.60.

The next assay relates to Caco-2. The experiment in a line: Antiproliferative activity against human Caco-2 cells assessed as inhibition of cell growth incubated for 72 hrs by MTT assay. In kind it is functional, cell-based. The following applies: Caco-2, 72 h.
On to `Nc1ccccc1NC(=O)c1ccc(COc2ccc(CNC(=O)[C@@H]3CCCN3Cc3ccccc3)cc2)cc1`, for which the pIC50 was 5.72.

The next assay has as its target T4, Class 1 histone deacetylase (Homo sapiens) (UniProt Q13547+O15379+Q92769+Q9BY41). Description: Inhibition of class I HDAC in human A549 cells assessed as increase in histone H3 acetylation at 5 uM incubated for 48 hrs by immunoblot analysis. In kind it is cell-based.
Details: not given
A general note: In western blotting, separated proteins are transferred to a membrane and probed.
Regarding `Nc1ccccc1NC(=O)c1ccc(COc2ccc(CNC(=O)[C@@H]3CCCN3Cc3ccccc3)cc2)cc1`, the inhibition entry was “Active”.

The target of another assay is T5, Protein deacetylase HDAC6 (Homo sapiens) (UniProt Q9UBN7).
T5 sequence (whole entry): T2 sequence (Q9UBN7 whole entry)
Description: Inhibition of HDAC6 in human A549 cells assessed as increase in acetylated alpha-tubulin level at 5 uM incubated for 48 hrs by immunoblot analysis. The format is cell-based.
Details: not given
For the compound `Nc1ccccc1NC(=O)c1ccc(COc2ccc(CNC(=O)[C@@H]3CCCN3Cc3ccccc3)cc2)cc1`, the inhibition entry was “inactive”.

In another assay the target is T4, Class 1 histone deacetylase (Homo sapiens). Description: Inhibition of class I HDAC in human A549 cells assessed as downregulation of EGFR gene expression at 5 uM incubated for 48 hrs by qRT-PCR analysis. In kind it is cell-based.
Details: not given
Background: In qPCR the cycle at which signal appears reflects the starting amount.
For the compound `Nc1ccccc1NC(=O)c1ccc(COc2ccc(CNC(=O)[C@@H]3CCCN3Cc3ccccc3)cc2)cc1`, the inhibition entry was “Active”.

Another assay shares this target. Description: Inhibition of class I HDAC in human A549 cells assessed as downregulation of ERBB2 gene expression at 5 uM incubated for 48 hrs by qRT-PCR analysis. In kind it is cell-based.
Details: not given
As to `Nc1ccccc1NC(=O)c1ccc(COc2ccc(CNC(=O)[C@@H]3CCCN3Cc3ccccc3)cc2)cc1`, the inhibition result is “inactive”.

Another assay shares this target. The experiment in a line: Inhibition of class I HDAC in human A549 cells assessed as downregulation of STAT3 gene expression at 5 uM incubated for 48 hrs by qRT-PCR analysis. In kind it is cell-based.
Details: not given
Regarding `Nc1ccccc1NC(=O)c1ccc(COc2ccc(CNC(=O)[C@@H]3CCCN3Cc3ccccc3)cc2)cc1`, the inhibition result was “inactive”.

For the next assay the target is unchanged. Description: Inhibition of class I HDAC in human A549 cells assessed as downregulation of MYC gene expression at 5 uM incubated for 48 hrs by qRT-PCR analysis. In kind it is cell-based.
Details: not given
`Nc1ccccc1NC(=O)c1ccc(COc2ccc(CNC(=O)[C@@H]3CCCN3Cc3ccccc3)cc2)cc1`: the inhibition result is “inactive”.

For a further assay the target is unchanged. Description: Inhibition of class I HDAC in human A549 cells assessed as downregulation of EGFR protein expression at 5 uM incubated for 48 hrs by western blot analysis. The format is cell-based.
Details: not given
As for `Nc1ccccc1NC(=O)c1ccc(COc2ccc(CNC(=O)[C@@H]3CCCN3Cc3ccccc3)cc2)cc1`, the inhibition result was “Active”.

A further assay has as its target T1, Histone deacetylase 1. The experiment in a line: Inhibition of human recombinant HDAC1 using Ac-Leu-Gly-Lys(Ac)-AMC as substrate preincubated with enzyme for 30 mins followed by substrate addition and measured after 90 mins by fluorescence based analysis relative to control. The following applies: time 120.0 min.
`Nc1ccccc1NC(=O)c1ccc(COc2ccc(CNC(=O)C3CCCO3)cc2)cc1` (stereo unspecified): the inhibition worked out at 75%.
